Measured values from PubChem BioAssay (NCI).
Several values for one entry are separate records, joined by “and”; a condition that tells them apart may be missing. Identical values can stand only once.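 A five-concentration, 48-hour dose response in 96-well plates underlies each endpoint, interpolated linearly between surrounding concentrations. Abbreviation: GI50, concentration required for 50% inhibition of growth. TGI marks complete inhibition of growth.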

Assays:
Experiment in all cases: inhibition of tumour cell growth, NCI panel, 48 h
CCRF-CEM leukemia = test system: CCRF-CEM leukemia
HCT-116 colon = test system: HCT-116 colon
HOP-62 NSCLC = test system: HOP-62 NSCLC
HOP-92 NSCLC = test system: HOP-92 NSCLC
HT29 colon = test system: HT29 colon
MOLT-4 leukemia = test system: MOLT-4 leukemia
NCI-H226 lung = test system: NCI-H226 lung
SK-MEL-2 melanoma = test system: SK-MEL-2 melanoma
SK-MEL-5 melanoma = test system: SK-MEL-5 melanoma

| SMILES | TGI (CCRF-CEM leukemia) | TGI (HCT-116 colon) | TGI (HOP-62 NSCLC) | TGI (HOP-92 NSCLC) | TGI (HT29 colon) | TGI (MOLT-4 leukemia) | TGI (NCI-H226 lung) | TGI (SK-MEL-2 melanoma) | TGI (SK-MEL-5 melanoma) | GI50 (CCRF-CEM leukemia) | GI50 (HOP-62 NSCLC) | GI50 (NCI-H226 lung) | GI50 (HOP-92 NSCLC) | GI50 (MOLT-4 leukemia) |
| --- | --- | --- | --- | --- | --- | --- | --- | --- | --- | --- | --- | --- | --- | --- |
| O=C1NC(=O)C2=C1CCC2O (configuration not stated) | > 100 µM | > 100 µM | > 100 µM | > 100 µM | > 100 µM | > 100 µM | > 100 µM | > 100 µM |  |  |  |  |  |  |
| O=C1C2c3[nH]c4ccccc4c3C3CCSCC3C2C(=O)N1c1ccccc1 (configuration not stated) | > 100 µM | > 100 µM | > 100 µM | > 100 µM | > 100 µM | > 100 µM | > 100 µM | > 100 µM | > 100 µM |  |  |  |  |  |
| COC(=O)C1Cc2c(n(C)c3ccccc23)C(c2ccccc2)N1 (configuration not stated) | > 100 µM | > 100 µM |  | > 100 µM | > 100 µM | > 100 µM | > 100 µM | > 100 µM | 93 µM |  |  |  |  |  |
| Nc1ccc(CCN2CCN(c3cccc(C(F)(F)F)c3)CC2)cc1 | > 100 µM | > 100 µM | > 100 µM | > 100 µM | > 100 µM | 89.7 µM | > 100 µM |  | > 100 µM |  |  |  |  |  |
| Cc1c2cc[n+](C)cc2c(C)c2c1[nH]c1ccc(OC(C)C)cc12 | 23.9 µM and > 64.7 µM | > 35.8 µM and 20.4 µM | 19.9 µM and 27.3 µM | 13.5 µM and 16.8 µM | 18.5 µM and 24.4 µM | 20.4 µM and 17.1 µM | 2.42 µM and 6.12 µM | 3.94 µM and 8.68 µM | 3.32 µM and 4.01 µM | 2.59 µM and 15.9 µM | 1.23 µM and 3.13 µM | 0.395 µM and 1.07 µM |  |  |
| CC1(c2ccccc2)CC12C(=O)NC(=O)NC2=O (configuration not stated) | > 100 µM | > 100 µM | > 100 µM | > 100 µM | > 100 µM | > 100 µM | > 100 µM | > 100 µM | > 100 µM |  |  |  |  |  |
| CCC12CCC(O)C1N(C)CCC2Sc1ccccc1 (configuration not stated) | > 100 µM | > 100 µM | > 100 µM | 94.3 µM | > 100 µM | > 100 µM | > 100 µM | > 100 µM | > 100 µM |  |  |  |  |  |
| N#C[C@]12CC3(CC[C@H]1CC1(C2)OCCO1)OCCO3 | > 100 µM | > 100 µM | > 100 µM |  |  | > 100 µM | > 100 µM | > 100 µM | > 100 µM |  |  |  |  |  |
| CC(=O)CC(=O)CCCC(=O)Nc1ccc(Cl)cc1Cl |  | > 100 µM | > 100 µM | > 100 µM | > 100 µM | > 100 µM | > 100 µM | > 100 µM |  |  |  |  |  |  |
| O=C(Nc1cccc(C2=NCCN2)c1)c1ccc(OCCCOc2ccc(C(=O)Nc3cccc(C4=NCCN4)c3)cc2)cc1 | > 100 µM |  | > 100 µM | 7 µM |  | > 100 µM |  |  |  | 4 µM | 4.45 µM |  | 1.25 µM | 3.86 µM |
| COc1cccc(/C=C\c2cc(OC)c(OC)c(OC)c2)c1 | 22.8 µM | > 100 µM | > 100 µM | > 100 µM | 67.9 µM | 18 µM | 83.9 µM |  |  |  |  |  |  |  |
| Cc1ccc(C)c(NC(=O)CC2C(=O)Nc3ccccc3S2(=O)=O)c1 (configuration not stated) | > 100 µM | > 100 µM |  | > 100 µM | > 100 µM | > 100 µM | > 100 µM | > 100 µM | > 100 µM |  |  |  |  |  |
| CC(C)SC1SCC2C(=O)N(C)C3(CC3C)C(=O)OCC(NC(=O)c3nc4ccccc4cc3O)C(=O)NC(C)C(=O)N(C)C1C(=O)N(C)C1(CC1C)C(=O)OCC(NC(=O)c1nc3ccccc3cc1O)C(=O)NC(C)C(=O)N2C (configuration not stated) | < 0.0001 µM | > 100 µM |  | < 0.0001 µM | 2.88 µM | < 0.0001 µM | < 0.0001 µM |  | < 0.0001 µM |  |  |  |  |  |
| NC(=O)c1csc(C2O[C@@H](COP(=O)(O)OP(=O)(O)OC[C@H]3OC(n4cnc5c(N)ncnc54)[C@H](O)[C@@H]3O)[C@H](O)[C@@H]2O)n1 (some centres not stated) | > 100 µM |  | > 100 µM | > 100 µM | > 100 µM | > 100 µM | > 100 µM | > 100 µM | > 100 µM |  |  |  |  |  |
| COC1CCC2C(=O)CCCC2O1 (configuration not stated) |  | > 100 µM | > 100 µM | > 100 µM | > 100 µM | > 100 µM | > 100 µM | > 100 µM | > 100 µM |  |  |  |  |  |
| Cc1cc(N(CCC#N)CCC#N)ccc1N=Nc1ccccc1[N+](=O)[O-] | > 100 µM |  | > 100 µM |  | > 100 µM | > 100 µM | > 100 µM | > 100 µM | > 100 µM |  |  |  |  |  |
| COC(=O)C(=O)C(C(=O)C(=O)Nc1ccc([N+](=O)[O-])cc1[N+](=O)[O-])c1nc2ccc([N+](=O)[O-])cc2[nH]c1=O (configuration not stated) | > 100 µM | > 100 µM | > 100 µM | > 100 µM | > 100 µM | > 100 µM | > 100 µM |  |  |  |  |  |  |  |
| O=C(c1ccccc1)c1ccc2cccc(O)c2n1 | 51.8 µM | 35.1 µM | > 100 µM |  |  | 70.9 µM | > 100 µM | > 100 µM | 75.8 µM |  |  |  |  |  |
| O=[N+]([O-])c1ccc2c(c1)OCCOCCOc1ccc([N+](=O)[O-])cc1OCCOCCO2 | > 100 µM | > 100 µM | > 100 µM |  | > 100 µM | > 100 µM | > 100 µM | > 100 µM | > 100 µM |  |  |  |  |  |
